Assay: Time course of conversion to indirubin in FaSSGF at 37° C.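 Further: compound incubated in fasted state simulated gastric fluid, species in samples quantified by UPLC-MS with UV (210–400 nm) and ELS detection.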
Assay type: physicochemical
Settings: FaSSGF (Example 4; table title prints FaSSIF) 37° C.; for Conversion to indirubin: over a 24 hour period

CN(C)CCN(C)CN1C(=O)/C(=C2\Nc3ccccc3C2=O)c2ccccc21 [drawing 268]
indirubin (15 min): 93% | indirubin methylene alcohol (15 min): 6% | starting material (prodrug compound) (15 min): 0% | indirubin (30 min): 93% | indirubin methylene alcohol (30 min): 6% | starting material (prodrug compound) (30 min): 0% | indirubin (1 h): 92% | indirubin methylene alcohol (1 h): 7% | starting material (prodrug compound) (1 h): 0% | indirubin (2 h): 95% | indirubin methylene alcohol (2 h): 1% | starting material (prodrug compound) (2 h): 0% | indirubin (24 h): 95% | indirubin methylene alcohol (24 h): 5% | starting material (prodrug compound) (24 h): 0% | Conversion to indirubin: 80-100%

O=C1/C(=C2/C(=O)N(C(=O)NC3CCOCC3)c3ccccc32)Nc2ccccc21 [drawing 278]
indirubin (15 min): 7% | indirubin methylene alcohol (15 min): 0% | starting material (prodrug compound) (15 min): 69% | indirubin (30 min): 12% | indirubin methylene alcohol (30 min): 0% | starting material (prodrug compound) (30 min): 61% | indirubin (1 h): 11% | indirubin methylene alcohol (1 h): 0% | starting material (prodrug compound) (1 h): 82% | indirubin (2 h): 9% | indirubin methylene alcohol (2 h): 0% | starting material (prodrug compound) (2 h): 58% | indirubin (24 h): 10% | indirubin methylene alcohol (24 h): 0% | starting material (prodrug compound) (24 h): 86% | Conversion to indirubin: 0-20%

CN1CCN(CN2C(=O)/C(=C3\Nc4ccccc4C3=O)c3ccccc32)CC1 [drawing 273]
indirubin (15 min): 23% | indirubin methylene alcohol (15 min): 0% | starting material (prodrug compound) (15 min): 75% | indirubin (30 min): 18% | indirubin methylene alcohol (30 min): 0% | starting material (prodrug compound) (30 min): 76% | indirubin (1 h): 24% | indirubin methylene alcohol (1 h): 0% | starting material (prodrug compound) (1 h): 74% | indirubin (2 h): 24% | indirubin methylene alcohol (2 h): 0% | starting material (prodrug compound) (2 h): 76% | indirubin (24 h): 41% | indirubin methylene alcohol (24 h): 0% | starting material (prodrug compound) (24 h): 58% | Conversion to indirubin: 40-60%

O=C1/C(=C2/C(=O)N(CN3CCC3)c3ccccc32)Nc2ccccc21 [drawing 275]
indirubin (15 min): 25% | indirubin methylene alcohol (15 min): 2% | starting material (prodrug compound) (15 min): 71% | indirubin (30 min): 26% | indirubin methylene alcohol (30 min): 4% | starting material (prodrug compound) (30 min): 70% | indirubin (1 h): 25% | indirubin methylene alcohol (1 h): 2% | starting material (prodrug compound) (1 h): 71% | indirubin (2 h): 24% | indirubin methylene alcohol (2 h): 2% | starting material (prodrug compound) (2 h): 71% | indirubin (24 h): 23% | indirubin methylene alcohol (24 h): 3% | starting material (prodrug compound) (24 h): 74% | Conversion to indirubin: 20-40%

CNCCNC(=O)N1C(=O)/C(=C2\Nc3ccccc3C2=O)c2ccccc21.Cl [drawing 279]
indirubin (15 min): 0% | indirubin methylene alcohol (15 min): 0% | starting material (prodrug compound) (15 min): 100% | indirubin (30 min): 0% | indirubin methylene alcohol (30 min): 0% | starting material (prodrug compound) (30 min): 100% | indirubin (1 h): 0% | indirubin methylene alcohol (1 h): 0% | starting material (prodrug compound) (1 h): 100% | indirubin (2 h): 0% | indirubin methylene alcohol (2 h): 0% | starting material (prodrug compound) (2 h): 100% | indirubin (24 h): 0% | indirubin methylene alcohol (24 h): 0% | starting material (prodrug compound) (24 h): 100% | Conversion to indirubin: 0-20%

CN(C)C1CCN(CN2C(=O)/C(=C3\Nc4ccccc4C3=O)c3ccccc32)CC1 [drawing 272]
indirubin (15 min): 51% | indirubin methylene alcohol (15 min): 5% | starting material (prodrug compound) (15 min): 41% | indirubin (30 min): 55% | indirubin methylene alcohol (30 min): 5% | starting material (prodrug compound) (30 min): 36% | indirubin (1 h): 44% | indirubin methylene alcohol (1 h): 10% | starting material (prodrug compound) (1 h): 46% | indirubin (2 h): 44% | indirubin methylene alcohol (2 h): 10% | starting material (prodrug compound) (2 h): 46% | indirubin (24 h): 61% | indirubin methylene alcohol (24 h): 1% | starting material (prodrug compound) (24 h): 31% | Conversion to indirubin: 60-80%

O=C1/C(=C2/C(=O)N(CO)c3ccccc32)Nc2ccccc21 [drawing 274]
indirubin (15 min): 8% | indirubin methylene alcohol (15 min): 92% | starting material (prodrug compound) (15 min): 0% | indirubin (30 min): 18% | indirubin methylene alcohol (30 min): 82% | starting material (prodrug compound) (30 min): 0% | indirubin (1 h): 12% | indirubin methylene alcohol (1 h): 88% | starting material (prodrug compound) (1 h): 0% | indirubin (2 h): 18% | indirubin methylene alcohol (2 h): 82% | starting material (prodrug compound) (2 h): 0% | indirubin (24 h): 22% | indirubin methylene alcohol (24 h): 78% | starting material (prodrug compound) (24 h): 0% | Conversion to indirubin: 20-40%

O=C1/C(=C2/C(=O)N(CN3CCC(F)(F)CC3)c3ccccc32)Nc2ccccc21 [drawing 280]
Conversion to indirubin: 0-20%

CC(=O)N1CCN(CN2C(=O)/C(=C3\Nc4ccccc4C3=O)c3ccccc32)CC1 [drawing 281]
indirubin (15 min): 4% | indirubin methylene alcohol (15 min): 4% | starting material (prodrug compound) (15 min): 92% | indirubin (30 min): 3% | indirubin methylene alcohol (30 min): 0% | starting material (prodrug compound) (30 min): 97% | indirubin (1 h): 4% | indirubin methylene alcohol (1 h): 4% | starting material (prodrug compound) (1 h): 87% | indirubin (2 h): 3% | indirubin methylene alcohol (2 h): 0% | starting material (prodrug compound) (2 h): 97% | indirubin (24 h): 0% | indirubin methylene alcohol (24 h): 0% | starting material (prodrug compound) (24 h): 100% | Conversion to indirubin: 0-20%

CCN(CC)CN1C(=O)/C(=C2\Nc3ccccc3C2=O)c2ccccc21 [drawing 267]
indirubin (15 min): 100% | indirubin methylene alcohol (15 min): 0% | starting material (prodrug compound) (15 min): 0% | indirubin (30 min): 100% | indirubin methylene alcohol (30 min): 0% | starting material (prodrug compound) (30 min): 0% | indirubin (1 h): 100% | indirubin methylene alcohol (1 h): 0% | starting material (prodrug compound) (1 h): 0% | indirubin (2 h): 100% | indirubin methylene alcohol (2 h): 0% | starting material (prodrug compound) (2 h): 0% | indirubin (24 h): 100% | indirubin methylene alcohol (24 h): 0% | starting material (prodrug compound) (24 h): 0% | Conversion to indirubin: 80-100%

O=C1/C(=C2/C(=O)N(CN3CCOCC3)c3ccccc32)Nc2ccccc21 [drawing 276]
indirubin (15 min): 7% | indirubin methylene alcohol (15 min): 0% | starting material (prodrug compound) (15 min): 89% | indirubin (30 min): 8% | indirubin methylene alcohol (30 min): 0% | starting material (prodrug compound) (30 min): 85% | indirubin (1 h): 10% | indirubin methylene alcohol (1 h): 5% | starting material (prodrug compound) (1 h): 85% | indirubin (2 h): 11% | indirubin methylene alcohol (2 h): 3% | starting material (prodrug compound) (2 h): 80% | indirubin (24 h): 29% | indirubin methylene alcohol (24 h): 3% | starting material (prodrug compound) (24 h): 68% | Conversion to indirubin: 20-40%

O=C1/C(=C2/C(=O)N(COS(=O)(=O)O)c3ccccc32)Nc2ccccc21 [drawing 277]
indirubin (15 min): 0% | indirubin methylene alcohol (15 min): 15% | starting material (prodrug compound) (15 min): 83% | indirubin (30 min): 0% | indirubin methylene alcohol (30 min): 23% | starting material (prodrug compound) (30 min): 67% | indirubin (2 h): 0% | indirubin methylene alcohol (2 h): 22% | starting material (prodrug compound) (2 h): 72% | indirubin (24 h): 0% | indirubin methylene alcohol (24 h): 8% | starting material (prodrug compound) (24 h): 26% | Conversion to indirubin: 0-20%

O=C1/C(=C2/C(=O)N(CN3CCCC3)c3ccccc32)Nc2ccccc21 [drawing 270]
indirubin (15 min): 100% | indirubin methylene alcohol (15 min): 0% | starting material (prodrug compound) (15 min): 0% | indirubin (30 min): 100% | indirubin methylene alcohol (30 min): 0% | starting material (prodrug compound) (30 min): 0% | indirubin (1 h): 100% | indirubin methylene alcohol (1 h): 0% | starting material (prodrug compound) (1 h): 0% | indirubin (2 h): 100% | indirubin methylene alcohol (2 h): 0% | starting material (prodrug compound) (2 h): 0% | indirubin (24 h): 99% | indirubin methylene alcohol (24 h): 1% | starting material (prodrug compound) (24 h): 0% | Conversion to indirubin: 80-100%

CN(C)CCN(CCN(C)C)CN1C(=O)/C(=C2\Nc3ccccc3C2=O)c2ccccc21 [drawing 271]
indirubin (15 min): 90% | indirubin methylene alcohol (15 min): 5% | starting material (prodrug compound) (15 min): 4% | indirubin (30 min): 94% | indirubin methylene alcohol (30 min): 4% | starting material (prodrug compound) (30 min): 2% | indirubin (1 h): 87% | indirubin methylene alcohol (1 h): 9% | starting material (prodrug compound) (1 h): 3% | indirubin (2 h): 91% | indirubin methylene alcohol (2 h): 8% | starting material (prodrug compound) (2 h): 2% | indirubin (24 h): 90% | indirubin methylene alcohol (24 h): 9% | starting material (prodrug compound) (24 h): 1% | Conversion to indirubin: 80-100%

O=C1/C(=C2/C(=O)N(CN3CCCCC3)c3ccccc32)Nc2ccccc21 [drawing 269]
indirubin (15 min): 99% | indirubin methylene alcohol (15 min): 0% | starting material (prodrug compound) (15 min): 1% | indirubin (30 min): 99% | indirubin methylene alcohol (30 min): 0% | starting material (prodrug compound) (30 min): 1% | indirubin (1 h): 99% | indirubin methylene alcohol (1 h): 0% | starting material (prodrug compound) (1 h): 1% | indirubin (2 h): 99% | indirubin methylene alcohol (2 h): 0% | starting material (prodrug compound) (2 h): 1% | indirubin (24 h): 99% | indirubin methylene alcohol (24 h): 0% | starting material (prodrug compound) (24 h): 1% | Conversion to indirubin: 80-100%

— patent publication US12516022B2, “Derivatives of aryl hydrocarbon receptor agonists” (AZORA THERAPEUTICS, INC., priority 2021, dated 2026)
